In the first experiment the target is T1, sGC α1/β1 heterodimer stably expressed in CHO-K1 cell line (CHO-K1/sGC) (Homo sapiens, UniProt Q02108+Q02153).
T1 construct: expressed in transfected cells
T1 sequence (Q02108 1-690): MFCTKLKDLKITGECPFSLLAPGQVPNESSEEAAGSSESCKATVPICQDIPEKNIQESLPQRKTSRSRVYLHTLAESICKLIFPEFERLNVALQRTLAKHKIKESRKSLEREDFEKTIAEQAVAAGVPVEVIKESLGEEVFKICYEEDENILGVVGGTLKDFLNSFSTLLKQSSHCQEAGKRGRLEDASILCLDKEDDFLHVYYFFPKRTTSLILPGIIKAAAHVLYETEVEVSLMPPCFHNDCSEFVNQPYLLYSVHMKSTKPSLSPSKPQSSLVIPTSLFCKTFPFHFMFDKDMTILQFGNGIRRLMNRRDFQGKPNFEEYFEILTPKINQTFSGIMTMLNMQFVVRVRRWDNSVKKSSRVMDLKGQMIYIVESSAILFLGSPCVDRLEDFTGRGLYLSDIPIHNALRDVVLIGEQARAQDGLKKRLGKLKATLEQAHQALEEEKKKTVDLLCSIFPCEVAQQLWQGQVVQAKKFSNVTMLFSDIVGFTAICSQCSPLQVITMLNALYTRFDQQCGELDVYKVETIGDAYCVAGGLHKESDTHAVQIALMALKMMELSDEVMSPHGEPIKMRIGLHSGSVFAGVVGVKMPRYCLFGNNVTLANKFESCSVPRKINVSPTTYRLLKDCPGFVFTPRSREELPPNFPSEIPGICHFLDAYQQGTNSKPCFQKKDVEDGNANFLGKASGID
T1 sequence (Q02153 1-619): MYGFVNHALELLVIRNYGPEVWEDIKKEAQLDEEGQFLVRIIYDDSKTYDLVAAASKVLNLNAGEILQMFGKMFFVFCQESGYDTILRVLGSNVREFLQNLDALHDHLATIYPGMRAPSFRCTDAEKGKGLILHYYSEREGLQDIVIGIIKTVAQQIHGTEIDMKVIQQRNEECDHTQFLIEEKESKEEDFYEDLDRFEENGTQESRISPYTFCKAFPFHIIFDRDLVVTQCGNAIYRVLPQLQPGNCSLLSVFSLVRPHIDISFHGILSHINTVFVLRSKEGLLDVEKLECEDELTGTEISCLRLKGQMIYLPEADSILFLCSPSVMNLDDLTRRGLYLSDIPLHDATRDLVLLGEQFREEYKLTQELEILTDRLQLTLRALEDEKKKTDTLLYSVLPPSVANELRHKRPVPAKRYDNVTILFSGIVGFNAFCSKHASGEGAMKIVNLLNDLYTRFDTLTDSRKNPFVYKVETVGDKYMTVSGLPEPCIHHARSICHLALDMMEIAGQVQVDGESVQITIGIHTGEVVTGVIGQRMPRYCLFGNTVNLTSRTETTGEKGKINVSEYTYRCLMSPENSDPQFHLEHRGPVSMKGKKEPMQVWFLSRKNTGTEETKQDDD
The experiment can be described thus: Cell-based sGC Functional Assay (CASA Assay), cGMP generation. The following applies: CHO-K1/sGC cells, 1 hr at 37° C., cGMP by HTRF, 4P fit; presence or absence of 1 μM DETA-NO not given; read-out: IP (nM) (inflection point). The text has this: sGC is a heme-containing enzyme that converts GTP to secondary messenger cGMP. Increases in cGMP levels affect several physiological processes including vasorelaxation through multiple downstream pathways. […] Heme-dependent activators (HDAs) preferentially activate sGC containing a ferrous heme group. To determine the effect of sGC activators on enzyme activity, the CASA assay was developed to monitor the generation of cGMP in a cell line that stably expresses the heterodimeric sGC protein.
A CHO-K1 cell line stably expressing the sGC α1/β1 heterodimer was generated using a standard transfection protocol. CHO-K1 cells were transfected with plasmids pIREShyghsGCα1 and pIRESneo-hsGCβ1 simultaneously using FUGENE reagent. Clones that stably express both subunits were selected with hygromycin and neomycin for ˜2 weeks. Clone #7 was chosen for the assay and was designated CHO-K1/sGC. CHO-K1/sGC cells were maintained in F-K12 medium containing 10% heat-inactivated Fetal Bovine Serum (FBS), 100 μg/mL penicillin/streptomycin, 0.5 mg/mL hygromycin and 0.25 mg/mL G418. The cells were then cryopreserved in LN2. On the day of the assay, cells thawed and resuspended in EBSS Assay Buffer (Sigma, E3024) supplemented with 5 mM MgCl2, 10 mM HEPES (4-(2-hydroxyethyl)piperazine-1-ethanesulfonic acid) and 0.05% BSA (bovine serum albumin) (EAB) and cell density was then adjusted to 4×10^5/mL with EAB, IBMX (3-isobutyl-1-methylxanthin, 0.5 mM) was added to inhibit degradation of cGMP. Compounds were diluted from DMSO stock solutions and added to the assay at a final DMSO concentration of 2.5%. Cells were incubated with compounds in the presence and absence of 1 μM of Diethylenetriamine/nitric oxide adduct (DETA-NO; Sigma, 17018) for 1 hr at 37° C. At the end of the incubation period, the reaction was terminated and the cells were lysed with the detection reagents from Cisbio Kits. The level of intracellular cGMP was determined using an HTRF-based assay kit (CisBio, 62GM2PEC), which detects the displacement of a fluorescence labeled cGMP from its specific antibody. The cGMP produced by test compounds was directly compared to the maximum cGMP production (this value was set to equal 100% activation.) of the published sGC-HDA Compound A:
[drawing 300] (Example 1 in WO 2010/065275, published Jun. 10, 2010). The test compounds' activities were then expressed as a percentage of Compound A, the standard in every experiment. This percent activation was calculated either in the presence or absence of DETA-NO which was then plotted. IP and maximum fold induction was derived using ADA analysis software for 4P fit.
The compounds in the Examples of the instant invention had inflection points (IP) less than or equal to 10 μM and more particularly less than or equal to about 1 μM.
In the case of `CC1(c2ccc(Cl)c(F)c2)C(=O)Nc2nc(-c3cn4ncnc4c(CCCC(F)(F)F)n3)nc(O)c21` (stereo not drawn) [Example 138B, 5-(4-chloro-3-fluorophenyl)-4-hydroxy-5-methyl-2-(8-(4,4,4-trifluorobutyl)-[1,2,4]triazolo[1,5-a]pyrazin-6-yl)-5H-pyrrolo[2,3-d]pyrimidin-6(7H)-one], the EC50 was determined as 344 nM.
Take `CCCCc1nc(-c2nc(O)c3c(n2)NC(=O)C3(C)c2ccc(Cl)cn2)cn2ncnc12` (stereo not drawn) [Example 160A, 2-(8-butyl-[1,2,4]triazolo[1,5-a]pyrazin-6-yl)-5-(5-chloropyridin-2-yl)-4-hydroxy-5-methyl-5H-pyrrolo[2,3-d]pyrimidin-6(7H)-one]: the EC50 is 50.2 nM.
Same read-out and setting: to `CCCCc1nc(-c2nc(N)c3c(n2)NC(=O)C3(C)c2ccc(F)c(F)c2)cn2ncnc12` (stereo not drawn) [Example 64B, 4-amino-2-(8-butyl-[1,2,4]triazolo[1,5-a]pyrazin-6-yl)-5-(3,4-difluorophenyl)-5-methyl-5H-pyrrolo[2,3-d]pyrimidin-6(7H)-one] belongs 5.1 nM; to `C[C@@]1(c2ccc(F)cc2)C(=O)Nc2nc(-c3cn4ncnc4c(CCC(F)(F)C(F)(F)F)n3)ncc21` [Example 172A, (S)-5-(4-fluorophenyl)-5-methyl-2-(8-(3,3,4,4,4-pentafluorobutyl)-[1,2,4]triazolo[1,5-a]pyrazin-6-yl)-5,7-dihydro-6H-pyrrolo[2,3-d]pyrimidin-6-one], 212 nM; to `CC1(c2ccc(Cl)cc2)C(=O)Nc2nc(-c3cn4ncnc4c(CCC(F)(F)C(F)(F)F)n3)nc(N)c21` (stereo not drawn) [Example 10A, 4-amino-5-(4-chlorophenyl)-5-methyl-2-(8-(3,3,4,4,4-pentafluorobutyl)-[1,2,4]triazolo[1,5-a]pyrazin-6-yl)-5H-pyrrolo[2,3-d]pyrimidin-6(7H)-one], 15.8 nM.
Same read-out and setting: to `CCCCc1nc(-c2nc(O)c3c(n2)NC(=O)C3(C)c2ccc(C)cn2)cn2ncnc12` (stereo not drawn) [Example 161B, 2-(8-butyl-[1,2,4]triazolo[1,5-a]pyrazin-6-yl)-4-hydroxy-5-methyl-5-(5-methylpyridin-2-yl)-5H-pyrrolo[2,3-d]pyrimidin-6(7H)-one] belongs 303 nM.
As for `CCCCc1nc(-c2nc(N)c3c(n2)NC(=O)C3(C)c2ccc(C)cn2)cn2ncnc12` (stereo not drawn) [Example 71B, 4-amino-2-(8-butyl-[1,2,4]triazolo[1,5-a]pyrazin-6-yl)-5-methyl-5-(5-methylpyridin-2-yl)-5H-pyrrolo[2,3-d]pyrimidin-6(7H)-one], the EC50 worked out at 5.5 nM.
Same read-out and setting: to `CC1(c2ccccc2)C(=O)Nc2nc(-c3cn4ncnc4c(CCCC(F)(F)F)n3)nc(O)c21` (stereo not drawn) [Example 143B, 4-hydroxy-5-methyl-5-phenyl-2-(8-(4,4,4-trifluorobutyl)-[1,2,4]triazolo[1,5-a]pyrazin-6-yl)-5H-pyrrolo[2,3-d]pyrimidin-6(7H)-one] belongs 301 nM.
With `C[C@@]1(c2ccc(F)cc2)C(=O)Nc2nc(-c3cn4ncnc4c(CCCC(F)(F)F)n3)nc(O)c21` [Example 135A], the EC50 turned out to be 183 nM.
The same measure, in the same setting: to `CC1(c2ccc(C(F)(F)F)cc2)C(=O)Nc2nc(-c3cn4ncnc4c(CCC(F)(F)F)n3)nc(N)c21` (stereo not drawn) [Example 77B, 4-amino-5-methyl-5-(4-(trifluoromethyl)phenyl)-2-(8-(3,3,3-trifluoropropyl)-[1,2,4]triazolo[1,5-a]pyrazin-6-yl)-5H-pyrrolo[2,3-d]pyrimidin-6(7H)-one] belongs 333 nM; to `C[C@@]1(c2ccc(F)cc2)C(=O)Nc2nc(-c3cn4ncnc4c(Cc4cccc(O)c4)n3)nc(N)c21` [Example 113B, (S)-4-amino-5-(4-fluorophenyl)-2-(8-(3-hydroxybenzyl)-[1,2,4]triazolo[1,5-a]pyrazin-6-yl)-5-methyl-5H-pyrrolo[2,3-d]pyrimidin-6(7H)-one], 763 nM.
For the molecule `CCCc1nc(-c2nc(N)c3c(n2)NC(=O)[C@@]3(C)c2ccc(F)cc2)cn2nc(C)nc12` [Example 91A, (S)-4-amino-5-(4-fluorophenyl)-5-methyl-2-(2-methyl-8-propyl-[1,2,4]triazolo[1,5-a]pyrazin-6-yl)-5,7-dihydro-6H-pyrrolo[2,3-d]pyrimidin-6-one], the EC50 came out at 668 nM.
Same read-out and setting: next, `CC(C)Cc1nc(-c2nc(N)c3c(n2)NC(=O)[C@@]3(C)c2ccc(F)cc2)cn2ncnc12` [Example 73A, (S)-4-amino-5-(4-fluorophenyl)-2-(8-isobutyl-[1,2,4]triazolo[1,5-a]pyrazin-6-yl)-5-methyl-5,7-dihydro-6H-pyrrolo[2,3-d]pyrimidin-6-one]: 44.1 nM.
Take `COc1ccc(C2(C)C(=O)Nc3nc(-c4cn5ncnc5c(CCCC(F)(F)F)n4)nc(N)c32)nc1` (stereo not drawn) [Example 40A, 4-amino-5-(5-methoxypyridin-2-yl)-5-methyl-2-(8-(4,4,4-trifluorobutyl)-[1,2,4]triazolo[1,5-a]pyrazin-6-yl)-5H-pyrrolo[2,3-d]pyrimidin-6(7H)-one]: the EC50 worked out at 98.9 nM.
Take `Nc1nc(-c2cn3ncnc3c(CCCC(F)(F)F)n2)nc2c1C(c1ccc(C(F)(F)F)cc1)(C1CC1)C(=O)N2` (stereo not drawn) [Example 35A, 4-amino-5-cyclopropyl-2-(8-(4,4,4-trifluorobutyl)-[1,2,4]triazolo[1,5-a]pyrazin-6-yl)-5-(4-(trifluoromethyl)phenyl)-5H-pyrrolo[2,3-d]pyrimidin-6(7H)-one]: the EC50 is 416 nM.
Still for that read-out and setting: next, `CCCCc1nc(-c2nc(O)c3c(n2)NC(=O)C3(C)c2ccc(F)c(F)c2)cn2ncnc12` (stereo not drawn) [Example 158B, 2-(8-butyl-[1,2,4]triazolo[1,5-a]pyrazin-6-yl)-5-(3,4-difluorophenyl)-4-hydroxy-5-methyl-5H-pyrrolo[2,3-d]pyrimidin-6(7H)-one]: 102 nM.
In the case of `CCCCc1nc(-c2nc(N)c3c(n2)NC(=O)C3(c2ccc(F)c(F)c2)C2CC2)cn2ncnc12` (stereo not drawn) [Example 65A, 4-amino-2-(8-butyl-[1,2,4]triazolo[1,5-a]pyrazin-6-yl)-5-cyclopropyl-5-(3,4-difluorophenyl)-5H-pyrrolo[2,3-d]pyrimidin-6(7H)-one], the EC50 turned out to be 2.6 nM.

The same experiment, now with this note: CHO-K1/sGC cells, 1 hr at 37° C., cGMP by HTRF; presence or absence of 1 μM DETA-NO not given; read-out: % Act. (percent activation relative to maximum cGMP production of Compound A = 100%).
Regarding `CCCCc1nc(-c2nc(N)c3c(n2)NC(=O)C3(C)c2ccc(F)c(F)c2)cn2ncnc12` (stereo not drawn) [Example 64B, 4-amino-2-(8-butyl-[1,2,4]triazolo[1,5-a]pyrazin-6-yl)-5-(3,4-difluorophenyl)-5-methyl-5H-pyrrolo[2,3-d]pyrimidin-6(7H)-one], the Emax came to 90%.

The values above are taken from patent US9822130B2, “Triazolo-pyrazinyl derivatives useful as soluble guanylate cyclase activators” (Merck Sharp & Dohme Corp., priority 2014, dated 2017).
